Experimental data published in US20030069194A1, “Inhibition of viral replication by targeting RNA-DNA complexes” (priority 2001, published 2003).
Values joined by “and” are separate entries in the source; they are usually repeats but may differ in a detail not shown here. Equal entries are not always repeated. Structures can show the parent of a compound that is named as a salt.

Experiments:
18C-18R duplex = experiment: UV melting (thermal denaturation) and ΔTm analysis, 18C-18R duplex; assay type: binding, HIV-1; conditions: for Ka (ΔTm-derived association constant): extrapolated to 25° C.; for greater affinity for the 18C-18R duplex than for the 18C-18D duplex: 18C-18R versus 18C-18D; for enhancement of thermal stability of the duplex (ΔTm): 18C-18R, drug to duplex ratio (rdup) 3.0, FIG. 3a
Description: All UV absorbance experiments were conducted on an AVIV Model 14DS Spectrophotometer (Aviv Associates; Lakewood, N.J.) equipped with a thermoelectrically controlled cell holder. A quartz cell with a 1 cm pathlength was used for all the absorbance studies. Absorbance versus temperature profiles were measured at 274 nm with a 6 sec averaging time. The temperature was raised in 0.5° C. increments, and the samples were allowed to equilibrate for 1 min at each temperature setting. In these thermal denaturation studies, 18C-18R and 18C-18D solutions were […] in duplex and contained aminoglycoside at concentrations ranging from 0 to 12 μM. The duplex solutions were preheated for 5 min at 85° C. and then cooled to room temperature prior to addition of the drug. The buffer solutions for the UV melting experiments contained 10 mM PIPES (pH 6.0) and 5 mM MgCl2. For each optically detected transition, the melting temperature (Tm) was determined. Marky, L. A. & Breslauer, K. J. Calculating thermodynamic data for transitions of any molecularity from equilibrium melting curves, Biopolymers 26, 1601-1620 (1987).
The ΔTm method described below was used to derive aminoglycoside-duplex association constants (Ka). Measured aminoglycoside-induced changes in the thermal stability of the host duplexes (FIG. 3) were used to estimate the apparent drug-duplex association constants at Tm (KTm) from the following expression (Crothers, D. M. Statistical thermodynamics of nucleic acid melting transitions with coupled binding equilibria, Biopolymers 10, 2147-2160 (1971)): [formula]
In this expression, TmO and Tm are the melting temperatures of the drug-free and drug-bound duplex, respectively, n is the number of drug molecules bound per duplex, ΔHdup is the enthalpy change for the melting of the duplex in the absence of bound drug, and L is the free drug concentration at Tm (which can be estimated by one half the total drug concentration). Values of ΔHdup for the 18C-18R and 18C-18D duplexes were determined from the shapes of their UV melting profiles using the following relationship (Marky, L. A. & Breslauer, K. J. Calculating thermodynamic data for transitions of any molecularity from equilibrium melting curves, Biopolymers 26, 1601-1620 (1987)): [formula]
where α is the fraction of single strand. This calculation yielded ΔHdup values of 157.8 kcal/mol for the 18C-18R duplex and 130.3 kcal/mol for the 18C-18D duplex. For meaningful comparisons, the calculated apparent binding constants at Tm should be extrapolated to a common reference temperature using the standard relationship: [formula]
where ΔHb is the enthalpy of drug binding.

18C-18D duplex = experiment: Isothermal titration calorimetry (ITC), 18C-18D duplex; assay type: binding, HIV-1; conditions: for ΔHb (binding enthalpy): 18C-18D duplex, ITC at 25° C.
Description: Isothermal calorimetric measurements were performed at 25° C. on a MicroCal VP-ITC (MicroCal, Inc., Northampton, Mass.). In a typical experiment, 5 μl aliquots of 500 μM aminoglycoside were injected from a 250 μl rotating (430 RPM) syringe into an isothermal sample chamber containing 1.31 mL of either a 18C-18R solution that was 10 μM in duplex or a 18C-18D solution that was 15 μM in duplex. Each experiment of this type was accompanied by the corresponding control experiment in which 5 μL aliquots of 500 μM drug were injected into a solution of buffer alone. The duration of each injection was 5 seconds and the delay between injections was 240 seconds. The initial delay prior to the first injection was 60 seconds. Each injection generated a heat burst curve (μcal/sec vs. sec). The area under each curve was determined by integration [using the Origin version 5.0 software (MicroCal, Inc., Northampton, Mass.)] to obtain a measure of the heat associated with that injection. The heat associated with each drug-buffer injection was subtracted from the corresponding heat associated with each drug-duplex injection to yield the heat of drug binding for that injection. The calorimeter was calibrated both electronically and chemically. Pilch, D. S., Kirolos, M. A., Liu, X., Plum, G. E. & Breslauer, K. J. Berenil [1,3-bis-(4′-amidinophenyl)triazene] binding to DNA duplexes and to a RNA duplex: Evidence for both intercalative and minor groove binding properties, Biochemistry 34, 9962-9976 (1995). All duplex solutions were preheated for 5 minutes at 85° C. and then cooled to room temperature prior to their use in the ITC experiments. The buffer solutions for the ITC experiments contained 10 mM PIPES (pH 6.0) and 5 mM MgCl2.
Table 1 summarizes the apparent association constants at 25° C. that were calculated using equations (1)-(3) for neomycin and paromomycin binding to the 18C-18R and 18C-18D duplexes. The drug binding enthalpies (ΔHb) required for extrapolation of the binding constants at Tm to common reference temperature of 25° C. using equation (3) were determined using isothermal titration calorinietry (ITC). […] Each of the heat burst curves in FIG. 4 corresponds to a single drug injection, with the seven injections resulting in a final drug to duplex ratio (rdup) of either 0.83 (when 18C-18D served as the target duplex) or 1.25 (when 18C-18R served as the target duplex). The areas under these heat burst curves were determined by integration to yield the associated injection heats. For each titration, the seven injection heats were similar in magnitude, an observation consistent with all of the injected drug being bound by the host duplex. These injection heats were corrected by subtraction of the corresponding dilution heats derived from the injection of identical amounts of drug into buffer alone. The resulting corrected injection heats then were divided by the total concentration of injected drug and averaged to yield the ΔHb values listed in Table 1.

HIV-1 = conditions: chronically infected cells; Zapp et al., Cell 74 (1993); cited from earlier work

Compound | Ka (ΔTm-derived association constant) (18C-18R duplex; 18C-18R duplex) | greater affinity for the 18C-18R duplex than for the 18C-18D duplex (18C-18R duplex) | enhancement of thermal stability of the duplex (ΔTm) (18C-18R duplex) | ΔHb (binding enthalpy) (18C-18D duplex) | ΔHb (binding enthalpy) (18C-18D duplex; listed as Paromomycin) | inhibition of HIV-1 production (HIV-1) | difference in affinity, neomycin greater than paromomycin (18C-18R duplex; 18C-18R duplex) | greater affinity for the 18C-18R duplex than for the 18C-18D duplex (18C-18R duplex; trisulfate trihydrate) | ΔHb (binding enthalpy) (18C-18D duplex; listed as Neomycin, trisulfate trihydrate) | ΔHb (binding enthalpy) (18C-18D duplex; trisulfate trihydrate) | binding stoichiometry (18C-18D duplex; ITC, 18C-18D)
NC[C@@H]1O[C@H](O[C@H]2[C@@H](O)[C@H](O[C@@H]3[C@@H](O)[C@H](N)C[C@H](N)[C@H]3O[C@H]3O[C@H](CO)[C@@H](O)[C@H](O)[C@H]3N)O[C@@H]2CO)[C@H](N)[C@@H](O)[C@@H]1O [paromomycin, paromomycin sulfate] | (4.3 ± 1.6) × 10^5 M^−1 | 2 fold | 1.4 °C | -3.6 kcal/mol | -3.6 ± 0.1 kcal/mol | – | – | – | – | – | –
Neomycin trisulfate trihydrate | (8.6 ± 1.5) × 10^6 M^−1 | – | 4.8 °C | – | – | inhibit HIV-1 production in chronically infected cells | 20 fold | ≈ 5 fold and 5 fold | -6.1 ± 0.1 kcal/mol | -6.1 kcal/mol | three
